Measured values reported in ChEMBL document CHEMBL5113394, “Design and synthesis of harmiquins, harmine and chloroquine hybrids as potent antiplasmodial agents” (Eur J Med Chem, 2022).
pIC50: −log10 of the molar value.

Assays:
Plasmodium falciparum [1] = assay: Antiplasmodial activity against chloroquine-sensitive Plasmodium falciparum 3D7 assessed as inhibition of parasite growth incubated for 3 days by HRP2-ELISA; format: functional, organism-based; conditions: 3D7, 72 h
[2] = Cytotoxicity against human HepG2 cells assessed as cell growth inhibition incubated for 1 day by neutral red assay; format: toxicity, cell-based
[3] = Selectivity index, ratio of IC50 for cytotoxicity against human HepG2 cells to IC50 for antiplasmodial activity against chloroquine-sensitive Plasmodium falciparum 3D7; format: toxicity, cell-based; conditions: read-out: Ratio IC50
[4] = Resistance index, ratio of IC50 for antiplasmodial activity against multidrug-resistant Plasmodium falciparum Dd2 to IC50 for antiplasmodial activity against chloroquine-sensitive Plasmodium falciparum 3D7; format: functional
[5] = Inhibition of hemin (unknown origin) assessed as inhibition of heme polymerization by measuring reduction in beta-hematin formation at 1 mM measured after 48 hrs by microplate reader assay
Plasmodium falciparum [6] = assay: Antiplasmodial activity against multidrug-resistant Plasmodium falciparum Dd2 assessed as inhibition of parasite growth incubated for 3 days by HRP2-ELISA; format: functional, organism-based; conditions: Dd2, 72 h
[7] = Resistance index, ratio of IC50 for antiplasmodial activity against chloroquine-resistant Plasmodium falciparum 7G8 to IC50 for antiplasmodial activity against chloroquine-sensitive Plasmodium falciparum 3D7; format: functional
Plasmodium falciparum [8] = assay: Antiplasmodial activity against chloroquine-resistant Plasmodium falciparum 7G8 assessed as inhibition of parasite growth incubated for 3 days by HRP2-ELISA; format: functional, organism-based; conditions: 7G8, 72 h
[9] = Resistance index, ratio of IC50 for antiplasmodial activity against multidrug-resistant Plasmodium falciparum K1 to IC50 for antiplasmodial activity against chloroquine-sensitive Plasmodium falciparum 3D7; format: functional
Plasmodium falciparum [10] = assay: Antiplasmodial activity against multidrug-resistant Plasmodium falciparum K1 assessed as inhibition of parasite growth incubated for 3 days by HRP2-ELISA; format: functional, organism-based; conditions: K1, 72 h
Plasmodium falciparum [11] = assay: Potency index, ratio of chloroquine IC50 to test compound IC50 for antiplasmodial activity against multidrug-resistant Plasmodium falciparum Dd2 assessed as inhibition of parasite growth incubated for 3 days by HRP2-ELISA; format: functional; conditions: time 3 day
Plasmodium falciparum [12] = assay: Potency index, ratio of chloroquine IC50 to test compound IC50 for antiplasmodial activity against multidrug-resistant Plasmodium falciparum K1 assessed as inhibition of parasite growth incubated for 3 days by HRP2-ELISA; format: functional; conditions: time 3 day
Plasmodium falciparum [13] = assay: Potency index, ratio of chloroquine IC50 to test compound IC50 for antiplasmodial activity against chloroquine-resistant Plasmodium falciparum 7G8 assessed as inhibition of parasite growth incubated for 3 days by HRP2-ELISA; format: functional; conditions: time 3 day
Plasmodium falciparum [14] = assay: Potency index, ratio of chloroquine IC50 to test compound IC50 for antiplasmodial activity against chloroquine-sensitive Plasmodium falciparum 3D7 assessed as inhibition of parasite growth incubated for 3 days by HRP2-ELISA; format: functional; conditions: time 3 day

Row | SMILES | pIC50 (Plasmodium falciparum [1]) | IC50 at 1 day [2] | selectivity ratio [3] | Ratio IC50 [4] | inhibition [5] | pIC50 (Plasmodium falciparum [6]) | Ratio IC50 [7] | pIC50 (Plasmodium falciparum [8]) | Ratio IC50 [9] | pIC50 (Plasmodium falciparum [10]) | Ratio IC50 (Plasmodium falciparum [11]) | Ratio IC50 (Plasmodium falciparum [12]) | Ratio IC50 (Plasmodium falciparum [13]) | Ratio IC50 (Plasmodium falciparum [14])
1 | Cc1nccc2c1[nH]c1ccc(OCc3cn(-c4ccnc5cc(Cl)ccc45)nn3)cc12 | 5.44 | 5500 nM | 1.5 | 1.9 | > 75% | 5.15 |  |  |  |  |  |  |  | 
2 | Cc1nccc2c1[nH]c1ccc(OCc3cn(CCNc4ccnc5cc(Cl)ccc45)nn3)cc12 | 7.18 | 15000 nM | 228 | 2.4 | > 75% | 6.79 | 2.1 | 6.84 | 2.1 | 6.85 |  |  |  | 
3 | COc1ccc2c3ccnc(C)c3n(CCNC(=O)CNc3ccnc4cc(Cl)ccc34)c2c1 | 8.70 | 8900 nM | 4450 |  | 50% | 7.79 |  | 8.13 |  | 7.61 | 22.5 | 15.9 | 29.8 | 5.5
4 | Cc1nccc2c1[nH]c1cc(OCc3cn(CCNc4ccnc5cc(Cl)ccc45)nn3)ccc12 | 7.24 | 6300 nM | 110 | 1.3 | > 75% | 7.12 | 0.7 | 7.35 | 0.5 | 7.47 |  |  |  | 
5 | COc1ccc2c3ccnc(C)c3n(CCC(=O)NCCNc3ccnc4cc(Cl)ccc34)c2c1 |  | 12800 nM | 795 |  | < 50% |  |  |  |  |  |  |  |  | 
6 | COc1ccc2c3ccnc(C)c3n(Cc3cn(-c4ccnc5cc(Cl)ccc45)nn3)c2c1 | 6.05 | 19700 nM | 21.9 | 2 | < 50% | 5.74 |  |  |  |  |  |  |  | 
7 | Clc1ccc2c(OCc3cn(Cc4nccc5c4[nH]c4ccccc45)nn3)ccnc2c1 | < 4.55 | > 25000 nM | > 0.9 |  | < 50% | < 4.56 |  |  |  |  |  |  |  | 
8 | Cc1nc(CNC(=O)CNc2ccnc3cc(Cl)ccc23)cc2c1[nH]c1ccccc12 | 7.89 | 18600 nM | 1430 | 3.5 | < 50% | 7.34 | 2.1 | 7.55 | 3.7 | 7.31 |  |  |  | 
9 | O=C(CNc1ccnc2cc(Cl)ccc12)NCc1nccc2c1[nH]c1ccccc12 | 7.27 | 7800 nM | 144 | 3.1 | < 50% | 6.77 |  |  |  |  |  |  |  | 
10 | Cc1nccc2c1[nH]c1cc(OCc3cn(-c4ccnc5cc(Cl)ccc45)nn3)ccc12 | 7.02 | 6400 nM | 66.8 | 2.1 | > 75% | 6.69 | 2 | 6.71 | 3.1 | 6.52 |  |  |  | 
11 | COc1ccc2c(c1)[nH]c1c(C)nccc12 [HARMINE] |  | > 250000 nM |  |  |  |  |  |  |  |  |  |  |  | 
12 | COc1ccc2c3ccnc(C)c3n(CCC(=O)NCCCCNc3ccnc4cc(Cl)ccc34)c2c1 |  | > 25000 nM | > 723 |  | < 50% |  |  |  |  |  |  |  |  | 
13 | Cc1nc(Cn2cc(COc3ccnc4cc(Cl)ccc34)nn2)cc2c1[nH]c1ccccc12 | 4.96 | > 100000 nM | > 9.22 | 0.4 | 50% | 5.27 |  |  |  |  |  |  |  | 
14 | COc1ccc2c3ccnc(C)c3n(Cc3cn(CCNc4ccnc5cc(Cl)ccc45)nn3)c2c1 | 7.94 | 14000 nM | 829 |  | 50% | 6.69 |  | 7.54 |  | 6.79 |  |  |  | 
15 | CCN(CC)CCCC(C)Nc1ccnc2cc(Cl)ccc12 (configuration not stated) |  |  |  |  | > 75% |  |  |  |  |  |  |  |  | 
16 | Cc1nccc2c1[nH]c1ccc(OCCNC(=O)CNc3ccnc4cc(Cl)ccc34)cc12 | 6.52 | > 20000 nM | > 66 | 1.7 | < 50% | 6.27 |  |  |  |  |  |  |  | 
17 | Cc1nccc2c1[nH]c1cc(OCCNC(=O)CNc3ccnc4cc(Cl)ccc34)ccc12 | 6.63 | 15900 nM | 68.1 | 1.3 | 50% | 6.51 |  |  |  |  |  |  |  | 
